From patent publication US9308268B2, “Solubilized benzoyl peroxyde acne” (TRANSDERMAL CORP, priority 2005, dated 2016)

Experiments:
[1] = Solubility of benzoyl peroxide; format: physicochemical; settings: by weight of the solubilized benzoyl peroxide topical formulation
Protocol: Benzoyl peroxide is a crystalline solid with a melting point of 103° C. to 106° C., and is insoluble in water.
Benzoyl peroxide is soluble in organic solvents, but most organic solvents are toxic and therefore not suitable for pharmaceutical/cosmetic use. Polar organic solvents such as acetone and ethanol are less toxic, but the flammability of these solvents as well as the ability of these solvents to irritate and strip the skin of its protective mantle limit their use in pharmaceutical or cosmetic compositions.
In contrast to prior art formulations of benzoyl peroxide, the benzoyl peroxide will actively go into solution at levels as high as 10% by weigh of the solubilized benzyl peroxide topical formulation. Furthermore, the solubilized benzoyl peroxide topical formulation is translucent and has increased efficacy.

[2] = cited from earlier work

For `O=C(OOC(=O)c1ccccc1)c1ccccc1` [Benzoyl peroxide], the “level at which benzoyl peroxide goes into solution” value [1] is given as at most 10%, the “solubility in organic solvents” value ([2]; organic solvents) is given as “soluble” and the solubility in water ([2]; water) is given as “insoluble”.
